From patent US20060079573A1, “Methods and compositions for preventing vasospasm” (priority 2004, published 2006)

Assays:
canine brachial arteries [1] = test: TUNEL assay of endothelial and smooth muscle cell apoptosis in vessels; assay type: cell-based
Method: Endothelial and smooth muscle cell apoptosis was evaluated using the terminal deoxynucleotidyl transferase (TdT)-mediated dUTP nick end labeling (TUNEL) method. In preparation for the TUNEL assay, the vessels were embedded in optimal cutting temperature compound (OCT, Sakura Finetek, Torrance, Calif.). Cryosections from frozen tissue were obtained using a Hacker-Bright cryostat and thaw-mounted onto Fisher-Plus slides (Fisher Scientific). Determination of apoptosis was performed using an in situ cell death detection kit (Roche Applied Science, Indianapolis, Ind.). DNA strand breaks were labeled with fluorescein-dUTP, followed by the addition of a secondary, antifluorescein antibody conjugated with alkaline phosphatase, a converter which generates a red color from Vector Red substrate. Folio wing counterstaining with hematoxylin and dehydration in graded alcohols, the number of apoptotic cells (indicated by red-stained nuclei) per high power field (HPF) was counted under light microscopy and is expressed as a percentage of the total number of nuclei per HPF.

canine brachial arteries [2] = test: Contractile function of artery segments in organ chambers after WT soak; assay type: cell-based; conditions: for force of contraction in response to 5HT: 1 μM 5-HT; for force of contraction in response to NE: 1 μM NE; for force of contraction in response to U46: 3 μM U46619; for force of contraction in response to KCl: 60 mM KCl
Text: Canine brachial arteries, equivalents of radial arteries in humans, were used in this study since they were more readily available and we could obtain longer segments than human radial arteries. Based on previous publications, it has been determined that the contractile and relaxation properties of these canine vessels are similar to the properties of human radial arteries in organ chamber studies [Corvera et al. (2003) Pretreatment with phenoxybenzamine attenuates the radial artery's vasoconstrictor response to α-adrenergic stimuli, J. Thorac. Cardiovasc. Surg., 126:1549-54; Velez et al., 2001]. The arteries were harvested as a pedicle graft and stored in 4° C. KH buffer (in mM/1: glucose 11; magnesium sulfate, 1.2; potassium phosphate 1.2; KCl, 4.7; sodium chloride 118; calcium chloride, 2.5) at pH 7.4 until ready for use.
The vessels were carefully skeletonized, cut into 4-5 mm segments, and soaked in a 1 mM solution of WT in KH buffer and 10% DMSO (used to increase solubility of WT), pH 7.4 at 37° C. for 60 min. Control vessels were soaked in KH buffer with 10% DMSO only. The vessels were then rinsed well with KH to remove all unbound drug. For testing of contractile responses, the arterial segments were mounted on steel hooks in glass organ chambers (Radnoti Glass, Monrovia, Calif.) in KH buffer at pH 7.4 and 37° C., and continuously bubbled with a gas mixture of 95% O2 and 5% CO2. One steel hook was held stationary while the other was attached to a force transducer. Force generated by the vessels in response to various agonists was recorded using an analog-to-digital converter and SPECTRUM Cardiovascular Acquisition and Analysis software (Wake Forest University, Winston-Salem, N.C.). The vessel segments were allowed to stabilize at a baseline tension of 3 g for 60 min prior to testing the effect of various vasoconstrictor agents. During this time, the buffer was changed every 20 min. The total time from the end of WT treatment until contractile responses were tested was approximately 2 h. The contractile responses to 1 μM NE (α1 receptor-dependent, calcium-dependent), 1 μM 5-HT (serotonin receptor-dependent, calcium-independent), 3 μM U46 (thromboxane A2 receptor-dependent, calcium-independent), and 60 mM KCl (receptor-independent depolarizing agent) were then quantified. […] The order in which the constricting agents were administered was varied randomly in order to avoid the effects of one drug on another. […] The vessels were thoroughly washed and allowed to stabilize for 20 min between vasoconstrictor agents. The resting tension was adjusted to 3 g during each stabilization period.
To test the duration of MLCK inhibition by the 60 min pre-treatment with 1 mM WT, a subset of vessels were harvested and treated with WT as above, then incubated in drug-free sterile culture medium [Dulbecco's modified eagle medium (Sigma, St Louis Mo.), with 10% newborn calf serum (Gibco, Inc.) and 1% penicillin-streptomycin] under sterile conditions for 48 h in an incubator aerated with 95% O2 and 5% CO2. The culture medium was changed every 12 h during this time. At the end of the 48 h period, the vessels were removed, rinsed with KH buffer, and contractile responses were tested as described above.

canine brachial arteries [3] = test: Endothelial-independent smooth muscle relaxation to SNP after U46 pre-constriction; assay type: cell-based; conditions: 48 h after 1 mM WT; lower SNP concentrations (≦0.5 μM); pre-constricted with 3 μM U46; controls 87.49±2.91%
Method: Cardiovasc. Surg., 126:179-85; van Son et al. (1992) Detrimental sequelae on the wall of the internal mammary artery caused by hydrostatic dilation with diluted papaverine solution, J. Thorac. Cardiovasc. Surg., 104:972-6]. Therefore, to test the vasorelaxation capacity of the vessels after treatment with WT, the vessels were pre-constricted with 3 μM U46, and then exposed to incrementally increasing concentrations (50 nM to […]) of SNP, a direct smooth muscle dilator.
The capacity of the vascular smooth muscle to relax independently of the endothelium was evaluated by pre-constricting vessels with U46, followed by exposure to incrementally increasing concentrations of SNP, a direct smooth muscle relaxing agent. […] Two hours after soaking, control vessels relaxed 99.04±7.30% from their pre-constricted state in response to SNP.

canine brachial arteries [4] = test: Histologic evaluation (H and E) of vessels for morphologic injury; assay type: cell-based; conditions: 48 h after 1 mM WT treatment and incubation
Method: Prolonged storage in cell culture environments has the potential to cause cellular injury, which might impair smooth muscle function. To confirm that the lack of the observed contraction in WT-treated vessels was not a function of cellular damage, a subset of vessels was tested for histological signs of injury and apoptosis after treatment with WT and incubation for 48 h. For histology, formalin-fixed vessels were embedded in paraffin blocks, cut into sections for slide preparation, and stained with hematoxylin and eosin (H and E) prior to examination for signs of morphologic damage.

[5] = tested on: radial and internal mammary arteries; conditions: cited from earlier work
radial artery = conditions: cited from earlier work

Compound: COC[C@H]1OC(=O)c2coc3c2[C@@]1(C)C1=C(C3=O)[C@@H]2CCC(=O)[C@@]2(C)C[C@H]1OC(C)=O [WT, Wortmannin]
- TUNEL-positive cells in the smooth muscle (canine brachial arteries [1]; 48 h after WT treatment and incubation, control 0.35±0.16%): 4.63±1.04%
- TUNEL-positive cells in the endothelium (canine brachial arteries [1]; 48 h after WT treatment and incubation, control 4.47±2.90%, P=0.058): 16.88%±4.90
- apoptotic nuclei in smooth muscle layer versus control (canine brachial arteries [1]; FIG. 3, 400×): greater extent of apoptotic nuclei (black arrows) stained red by the TUNEL method in the smooth muscle layer of control vessels (A) as compared to WT-treated vessels
- apoptotic nuclei in endothelium versus control (canine brachial arteries [1]; FIG. 4, 400×): greater extent of apoptotic nuclei (black arrows) stained red by the TUNEL method in the endothelium of control vessels (A) as compared to WT-treated vessels
- force of contraction in response to 5HT (canine brachial arteries [2]; 2 h after 60 min soak in 1 mM WT, control 9.64±0.67 g): 0.92 ± 0.35 g
- force of contraction in response to 5HT (canine brachial arteries [2]; 48 h incubation after 1 mM WT soak, control 12.42±0.70 g): 4.67 ± 0.39 g
- force of contraction in response to NE (canine brachial arteries [2]; 2 h after 60 min soak in 1 mM WT, control 7.22±0.37 g): 0.19 ± 0.07 g
- force of contraction in response to NE (canine brachial arteries [2]; 48 h incubation after 1 mM WT soak, control 6.95±0.47 g): 2.36 ± 0.17 g
- force of contraction in response to U46 (canine brachial arteries [2]; 2 h after 60 min soak in 1 mM WT, control 10.99±0.50 g): 1.25 ± 0.17 g
- force of contraction in response to U46 (canine brachial arteries [2]; 48 h incubation after 1 mM WT soak, control 9.29±0.74 g): 5.42 ± 0.34 g
- force of contraction in response to KCl (canine brachial arteries [2]; 2 h after 60 min soak in 1 mM WT, control 15.00±0.48 g): 1.98 ± 0.27 g
- force of contraction in response to KCl (canine brachial arteries [2]; 48 h incubation after 1 mM WT soak, control 13.32±0.60 g): 7.49 ± 0.48 g
- contractile activity regained (canine brachial arteries [2]; 48 h after treatment): about 50%
- reduction of contractile responses / vasoconstriction (canine brachial arteries [2]; at 48 h following washout): 50%
- relaxation response to SNP from pre-constricted state (canine brachial arteries [3]): 76.01±2.60%
- microscopic evidence of injury, endothelium and elastic lamina (H and E) (canine brachial arteries [4]): appeared normal
- microscopic evidence of injury, smooth muscle (H and E) (canine brachial arteries [4]): minimal hypereosinophilic staining in the smooth muscle

Compound: COc1ccc(Cc2nccc3cc(OC)c(OC)cc23)cc1OC [papaverine]
- effect on endothelium (in words) [5]: causes both impairment of endothelial function and endothelial cell apoptosis
- effect on contraction after washout (in words) (radial artery; after the drug has been washed away): virtually no effect after the drug has been washed away

Compound: CC(COc1ccccc1)N(CCCl)Cc1ccccc1 (centres unmarked) [phenoxybenzamine]
- prevention of alpha-agonist-induced contractions (in words) (radial artery; 48 h following treatment): effective in preventing alpha-agonist-induced contractions at 48 h following treatment
